{"source": "paper PMC10510756", "about": "(Chemical Science, 2023)", "key": {"[1]": {"system": "SAM-I RS (RNA, riboswitch) GGCUUAUCAAGAGAGGGGGAGCGACUGGCGCGAAGAACCCCGGCAACCAGAAAUGGUGCCAAUUCCUGCAGCGGAAACGUUGAAAGAUGAGCCG", "test": "MST, SybrGold (1x) non-covalent dye", "settings": "100 mM KCl, 25 mM MgCl2; 50 mM Tris-HCl pH 7.5, 25 °C, 100 nM RNA"}, "[2]": {"system": "SAM-VI RS (RNA, riboswitch) GGCAUUGUGCCUCGCAUUGCACUCCGCGGGGCGAUAAGUCCUGAAAAGGGAUGUC", "test": "MST, SybrGold (1x) non-covalent dye", "settings": "100 mM KCl, 25 mM MgCl2; 50 mM Tris-HCl pH 7.5, 25 °C, 100 nM RNA"}, "[3]": {"system": "Cy5-SAM-VI RS (RNA, riboswitch) GGCAUUGUGCCUCGCAUUGCACUCCGCGGGGCGAUAAGUCCUGAAAAGGGAUGUC", "test": "MST, 5'-Cy5-labelled RNA", "settings": "100 mM KCl, 25 mM MgCl2; 50 mM Tris-HCl pH 7.5, 25 °C, 20 nM RNA"}, "[4]": {"system": "Neomycin aptamer (RNA, aptamer) GGCUGCUUGUCCUUUAAUGGUCCAGUC", "test": "MST, Syto 59 (1x) non-covalent dye", "settings": "100 mM KCl, 25 mM MgCl2; 50 mM Tris-HCl pH 7.5, 25 °C, 100 nM RNA; apparent; below tight-binding limit"}, "[5]": {"system": "PreQ1 RS (RNA, riboswitch) GGAGAGGUUCUAGCUACACCUCUAUAAAAAACUAA", "test": "MST, SybrGold (1x) non-covalent dye", "settings": "100 mM KCl, 25 mM MgCl2; 50 mM Tris-HCl pH 7.5, 25 °C, 100 nM RNA; apparent; near tight-binding limit"}, "METTL3/14": {"molecular_target": "METTL3/14 (Homo sapiens, UniProt Q86U44)", "sequence (Q86U44 2-580)": "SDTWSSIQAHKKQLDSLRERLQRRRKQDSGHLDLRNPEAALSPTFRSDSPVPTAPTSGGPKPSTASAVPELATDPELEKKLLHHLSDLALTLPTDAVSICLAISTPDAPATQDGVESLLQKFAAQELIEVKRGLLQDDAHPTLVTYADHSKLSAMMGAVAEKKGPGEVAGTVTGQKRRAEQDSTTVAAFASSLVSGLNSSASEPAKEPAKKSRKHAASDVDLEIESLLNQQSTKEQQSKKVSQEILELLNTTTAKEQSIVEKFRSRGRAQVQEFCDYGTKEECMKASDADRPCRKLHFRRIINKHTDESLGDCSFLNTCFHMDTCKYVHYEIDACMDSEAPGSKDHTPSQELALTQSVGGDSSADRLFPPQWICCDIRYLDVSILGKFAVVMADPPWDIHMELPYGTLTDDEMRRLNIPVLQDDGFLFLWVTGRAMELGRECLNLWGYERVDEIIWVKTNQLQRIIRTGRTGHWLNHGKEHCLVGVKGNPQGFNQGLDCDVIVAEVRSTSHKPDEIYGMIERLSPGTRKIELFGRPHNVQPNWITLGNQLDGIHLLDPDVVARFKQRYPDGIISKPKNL", "sequence (Q9HCE5 whole entry partner)": "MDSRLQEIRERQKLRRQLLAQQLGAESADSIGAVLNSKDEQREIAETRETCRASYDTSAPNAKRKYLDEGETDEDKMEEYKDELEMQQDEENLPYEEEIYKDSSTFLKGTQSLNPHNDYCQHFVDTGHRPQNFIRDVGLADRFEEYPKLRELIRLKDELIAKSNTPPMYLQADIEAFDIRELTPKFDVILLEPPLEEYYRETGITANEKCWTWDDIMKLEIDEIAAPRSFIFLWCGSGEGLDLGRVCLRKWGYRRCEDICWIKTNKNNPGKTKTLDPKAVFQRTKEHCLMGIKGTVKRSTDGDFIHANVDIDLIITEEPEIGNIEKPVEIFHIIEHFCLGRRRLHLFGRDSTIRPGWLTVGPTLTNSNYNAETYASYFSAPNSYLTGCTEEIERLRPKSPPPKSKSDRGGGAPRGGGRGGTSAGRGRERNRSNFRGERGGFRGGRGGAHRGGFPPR"}}, "data": [{"smiles": "C[S+](CC[C@H](N)C(=O)O)C[C@H]1O[C@@H](n2cnc3c(N)ncnc32)[C@H](O)[C@@H]1O", "note": "(stereo partly drawn)", "values": [{"measurement": "KD", "setting": "[1]", "result": 157, "unit": "nM"}, {"measurement": "KD", "setting": "[2]", "result": 953, "unit": "nM"}, {"measurement": "KD", "setting": "[3]", "result": "699 ± 185", "unit": "nM"}]}, {"smiles": "NC[C@@H]1O[C@H](O[C@H]2[C@@H](O)[C@H](O[C@@H]3[C@@H](O)[C@H](N)C[C@H](N)[C@H]3O[C@H]3O[C@H](CN)[C@@H](O)[C@H](O)[C@H]3N)O[C@@H]2CO)[C@H](N)[C@@H](O)[C@@H]1O", "values": [{"measurement": "KD,app", "setting": "[4]", "result": 29.6, "unit": "nM"}]}, {"smiles": "NCc1c[nH]c2nc(N)[nH]c(=O)c12", "values": [{"measurement": "KD,app", "setting": "[5]", "result": 44.8, "unit": "nM"}]}, {"smiles": "Nc1ncnc2c1ncn2[C@@H]1O[C@H](CSCC[C@H](N)C(=O)O)[C@@H](O)[C@H]1O", "values": [{"measurement": "KD", "setting": "[1]", "result": 137000, "unit": "nM"}, {"measurement": "KD", "setting": "[2]", "result": 10000, "unit": "nM"}, {"measurement": "KD", "setting": "[3]", "result": "23600 ± 7000", "unit": "nM"}]}, {"smiles": "C[S+](CC[C@H](N)C(=O)[O-])C[C@H]1O[C@@H](n2cnc3c(N)ncnc32)[C@H](O)[C@@H]1O", "note": "(stereo partly drawn) [S-adenosylmethionine]", "values": [{"measurement": "Km", "setting": "METTL3/14", "result": 0.226, "unit": "µM"}]}]}
